Test results published in patent US7022667B2, “O-derivatized nocathiacin derivatives” (Bristol-Myers Squibb Company, priority 2002, dated 2006).
Converted amounts (≈) assume the structure as drawn.

Experiments:
Experiment in all cases: MIC, broth micro dilution assay (NCCLS)
Format in all cases: cell-based
[1] = system: Enterococcus faecalis A20688; details: Mueller-Hinton medium, 35° C., 18 hours
Experimental: (§1) The serial broth dilution method used Mueller-Hinton medium except for the Streptococcus pneumoniae which was tested in 50% Mueller-Hinton medium and 50% Todd Hewitt medium. The final bacterial inoculate contained approximately 5×10^5 cfu/well and was run on microtiter plates. The volume of each well was 100 μL and the plates were incubated at 35° C. for 18 hours in ambient air. The MIC was defined as the lowest drug concentration that prevented visible growth.

[2] = system: Staphylococcus aureus A15090; details: Mueller-Hinton medium, 35° C., 18 hours
Experimental: as §1

[3] = system: Streptococcus pneumoniae A28272; details: 50% Mueller-Hinton medium and 50% Todd Hewitt medium, 35° C., 18 hours
Experimental: as §1

SMILES	MIC (μg/mL) Enterococcus faecalis A20688 [1] [µg/mL]	MIC (μg/mL) Staphylococcus aureus A15090 [2] [µg/mL]	MIC (μg/mL) Streptococcus pneumoniae A28272 [3] [µg/mL]
C=C(NC(=O)c1csc(-c2nc3c(cc2OCCN2CCOCC2)-c2nc(cs2)C(=O)NC(C(C)O)C(=O)NC(=C(C)OC)c2nc(cs2)C(=O)NC2c4nc(cs4)C(=O)NC(COC(=O)c4c5c6c(cccc6n4OCCN4CCOCC4)COC(=O)C(OC4CC(C)(O)C(N(C)C)C(C)O4)C2OC5)c2nc-3cs2)n1)C(N)=O (stereo not drawn) [Example 26]	0.25 (≈ 0.15 µM)	1.0 (≈ 0.601 µM)	0.03 (≈ 0.018 µM)
C=C(NC(=O)c1csc(-c2nc3c(cc2O)-c2nc(cs2)C(=O)NC(C(C)O)C(=O)NC(=C(C)OC)c2nc(cs2)C(=O)NC2c4nc(cs4)C(=O)NC(COC(=O)c4c5c6c(cccc6n4OCCN4CCOCC4)COC(=O)C(OC4CC(C)(O)C(N(C)C)C(C)O4)C2OC5)c2nc-3cs2)n1)C(N)=O.O=C(O)C(F)(F)F (stereo not drawn) [Example 27]	0.06	0.25	0.015
C=C(NC(=O)c1csc(-c2nc3c(cc2OCCCS(=O)(=O)[O-])-c2nc(cs2)C(=O)NC(C(C)O)C(=O)N/C(=C(\C)OC)c2nc(cs2)C(=O)NC2c4nc(cs4)C(=O)NC(COC(=O)c4c5c6c(cccc6n4O)COC(=O)C(OC4CC(C)(O)C(N(C)C)C(C)O4)C2OC5)c2nc-3cs2)n1)C(N)=O.[Na+] (stereo not drawn) [Example 28]	32	2.0	0.25
C=C(NC(=O)c1csc(-c2nc3c(cc2OC(=O)C(C)(C)C(=O)OCc2ccccc2)-c2nc(cs2)C(=O)NC(C(C)O)C(=O)NC(=C(C)OC)c2nc(cs2)C(=O)NC2c4nc(cs4)C(=O)NC(COC(=O)c4c5c6c(cccc6n4O)COC(=O)C(OC4CC(C)(O)C(N(C)C)C(C)O4)C2OC5)c2nc-3cs2)n1)C(N)=O (stereo not drawn) [Example 31]	0.5 (≈ 0.305 µM)	0.25 (≈ 0.152 µM)	0.06 (≈ 0.0365 µM)
C=C(NC(=O)c1csc(-c2nc3c(cc2OC(=O)c2ccc(Br)cc2)-c2nc(cs2)C(=O)NC(C(C)O)C(=O)NC(=C(C)OC)c2nc(cs2)C(=O)NC2c4nc(cs4)C(=O)NC(COC(=O)c4c5c6c(cccc6n4O)COC(=O)C(OC4CC(C)(O)C(N(C)C)C(C)O4)C2OC5)c2nc-3cs2)n1)C(N)=O (stereo not drawn) [Example 32]	1.0 (≈ 0.617 µM)	1.0 (≈ 0.617 µM)	0.015 (≈ 0.00926 µM)
C=C(NC(=O)c1csc(-c2nc3c(cc2OP(=O)(OCc2ccccc2)OCc2ccccc2)-c2nc(cs2)C(=O)NC(C(C)O)C(=O)NC(=C(C)OC)c2nc(cs2)C(=O)NC2c4nc(cs4)C(=O)NC(COC(=O)c4c5c6c(cccc6n4O)COC(=O)C(OC4CC(C)(O)C(N(C)C)C(C)O4)C2OC5)c2nc-3cs2)n1)C(N)=O (stereo not drawn) [Example 34]	1.0 (≈ 0.589 µM)	0.25 (≈ 0.147 µM)	0.125 (≈ 0.0736 µM)
C=C(NC(=O)c1csc(-c2nc3c(cc2OP(=O)(O)OCCCl)-c2nc(cs2)C(=O)NC(C(C)O)C(=O)NC(=C(C)OC)c2nc(cs2)C(=O)NC2c4nc(cs4)C(=O)NC(COC(=O)c4c5c6c(cccc6n4O)COC(=O)C(OC4CC(C)(O)C(N(C)C)C(C)O4)C2OC5)c2nc-3cs2)n1)C(N)=O (stereo not drawn) [Example 35]	1.0 (≈ 0.633 µM)	1.0 (≈ 0.633 µM)	0.03 (≈ 0.019 µM)
C=C(NC(=O)c1csc(-c2nc3c(cc2O)-c2nc(cs2)C(=O)NC(C(C)O)C(=O)NC(=C(C)OC)c2nc(cs2)C(=O)NC2c4nc(cs4)C(=O)NC(COC(=O)c4c5c6c(cccc6n4OCCO)COC(=O)C(OC4CC(C)(O)C(N(C)C)C(C)O4)C2OC5)c2nc-3cs2)n1)C(N)=O (stereo not drawn) [Example 36]	0.25 (≈ 0.169 µM)	0.25 (≈ 0.169 µM)	0.007 (≈ 0.00472 µM)
C=C(NC(=O)c1csc(-c2nc3c(cc2O)-c2nc(cs2)C(=O)NC(C(C)O)C(=O)NC(=C(C)OC)c2nc(cs2)C(=O)NC2c4nc(cs4)C(=O)NC(COC(=O)c4c5c6c(cccc6n4OCC(=O)OC)COC(=O)C(OC4CC(C)(O)C(N(C)C)C(C)O4)C2OC5)c2nc-3cs2)n1)C(N)=O (stereo not drawn) [Example 37]	0.06 (≈ 0.0397 µM)	0.03 (≈ 0.0199 µM)	0.001 (≈ 0.000662 µM)
C=C(NC(=O)c1csc(-c2nc3c(cc2O)-c2nc(cs2)C(=O)NC(C(C)O)C(=O)NC(=C(C)OC)c2nc(cs2)C(=O)NC2c4nc(cs4)C(=O)NC(COC(=O)c4c5c6c(cccc6n4OCC4OC6OC(C)(C)OC6C6OC(C)(C)OC46)COC(=O)C(OC4CC(C)(O)C(N(C)C)C(C)O4)C2OC5)c2nc-3cs2)n1)C(N)=O (stereo not drawn) [Example 38]	0.03 (≈ 0.0179 µM)	0.125 (≈ 0.0744 µM)	0.001 (≈ 0.000595 µM)
C=C(NC(=O)c1csc(-c2nc3c(cc2O)-c2nc(cs2)C(=O)NC(C(C)O)C(=O)NC(=C(C)OC)c2nc(cs2)C(=O)NC2c4nc(cs4)C(=O)NC(COC(=O)c4c5c6c(cccc6n4OCOP(=O)(OC(C)(C)C)OC(C)(C)C)COC(=O)C(OC4CC(C)(O)C(N(C)C)C(C)O4)C2OC5)c2nc-3cs2)n1)C(N)=O (stereo not drawn) [Example 40]	0.25 (≈ 0.151 µM)	0.125 (≈ 0.0753 µM)	0.015 (≈ 0.00904 µM)
C=C(NC(=O)c1csc(-c2nc3c(cc2O)-c2nc(cs2)C(=O)NC(C(C)O)C(=O)NC(=C(C)OC)c2nc(cs2)C(=O)NC2c4nc(cs4)C(=O)NC(COC(=O)c4c5c6c(cccc6n4OCOP(=O)(OCC)OCC)COC(=O)C(OC4CC(C)(O)C(N(C)C)C(C)O4)C2OC5)c2nc-3cs2)n1)C(N)=O (stereo not drawn) [Example 41]	0.03 (≈ 0.0187 µM)	0.015 (≈ 0.00935 µM)	0.001 (≈ 0.000624 µM)
C=C(NC(=O)c1csc(-c2nc3c(cc2O)-c2nc(cs2)C(=O)NC(C(C)O)C(=O)NC(=C(C)OC)c2nc(cs2)C(=O)NC2c4nc(cs4)C(=O)NC(COC(=O)c4c5c6c(cccc6n4OCCCN)COC(=O)C(OC4CC(C)(O)C(N(C)C)C(C)O4)C2OC5)c2nc-3cs2)n1)C(N)=O (stereo not drawn) [Example 42]	1.0 (≈ 0.669 µM)	0.25 (≈ 0.167 µM)	0.06 (≈ 0.0401 µM)
C=C(NC(=O)c1csc(-c2nc3c(cc2O)-c2nc(cs2)C(=O)NC(C(C)O)C(=O)NC(=C(C)OC)c2nc(cs2)C(=O)NC2c4nc(cs4)C(=O)NC(COC(=O)c4c5c6c(cccc6n4OCCC(=O)[O-])COC(=O)C(OC4CC(C)(O)C(N(C)C)C(C)O4)C2OC5)c2nc-3cs2)n1)C(N)=O.[Na+] (stereo not drawn) [Example 44]	0.25	0.125	0.03
